# In patent US20020160975A1, “Conserved XIAP-interaction motif in caspase-9 and Smac/DIABLO for mediating apoptosis” (Thomas Jefferson University, priority 2001, published 2002):
# Ends that are not written are not given here.
# Legend:
# [1] = target: T1, caspase-9-p12 binding to BIR3 (Homo sapiens, UniProt P98170); assay: In vitro binding of BIR3 to immobilized p12-GST with or without competing peptide; conditions: 200 μM peptide; p12-GST immobilized onto glutathione resin
# T1 construct: made in house; host or cells: bacteria (GST fusion)
# Procedure: (§1) The C-terminal GST fusion proteins were expressed in bacteria and then immobilized onto glutathione-affinity resin. […] The caspase-9 deletion mutants used in these studies are represented by bar diagrams above the panel in FIG. 10.
# The interactions were analyzed as in Example 3.
# [2] = target: T2, Smac/DIABLO binding to BIR3 (Homo sapiens, UniProt P98170); assay: In vitro binding of BIR3 to immobilized Smac-GST with or without competing peptide; conditions: 200 μM peptide; Smac-GST immobilized onto glutathione resin
# T2 construct: Smac-GST was immobilized onto glutathione resin and then incubated with BIR3
# XIAP [3] = target: T3, XIAP (Homo sapiens, UniProt P98170); assay: Cytochrome c-dependent caspase-3 activation in 293T S100 extracts containing XIAP (DEVD-AMC); format: biochemical; conditions: 25, 100 and 500 μM peptide, XIAP 10 nM, cytochrome c and dATP
# T3 construct: made in house; host or cells: in vitro translation (cell-free)
# Procedure: The activity of caspase-3 in the S100 extracts was measured using the peptide substrate DEVD-AMC.
# full length XIAP = target: T4, full length XIAP (Homo sapiens, UniProt P98170); assay: In vitro interaction assay of GST fusion proteins with 35S-labeled XIAP; format: binding; conditions: C-terminal GST fusion proteins immobilized onto glutathione-affinity resin
# T4 construct: full length XIAP or the isolated BIR3 domain of XIAP; made in house; host or cells: in vitro translation (cell-free)
# From the text: as §1
# [4] = target: T5, isolated BIR3 domain of XIAP (Homo sapiens, UniProt P98170); assay: In vitro interaction assay of GST fusion proteins with 35S-labeled BIR3; format: binding; conditions: C-terminal GST fusion proteins immobilized onto glutathione-affinity resin
# T5 construct: full length XIAP or the isolated BIR3 domain of XIAP; made in house; host or cells: in vitro translation (cell-free)
# From the text: as §1
# XIAP [5] = target: T3, XIAP; assay: Far Western blot analysis with 35S-labeled XIAP; format: binding
# procaspase-3 C163A = assay: Procaspase-3 processing and DEVD-AMC cleavage by caspase-9 reconstituted with Apaf-1; format: biochemical; conditions: 20 nM each with purified Apaf-1; cytochrome c and dATP
# Procedure: Procaspase-3 processing assays were generally performed as described in Srinivasula, S. M. et al. J Biol Chem 275:36152-36157, 2000. In this assay, purified recombinant procaspase-3 C163A was incubated with equal amounts of recombinant WT or triple mutant caspase-9 protein (20 nM) in the presence (+) or absence (−) of recombinant Apaf-1 (20 nM). The reaction mixtures were stimulated with cytochrome c (50 ng/μl) and dATP (1 mM), incubated for 0-60 minutes at 30° C., and then analyzed by SDS-PAGE and western blot analysis (FIG. 3).
# Caspase-3 enzymatic assays with the tetrapeptide substrate DEVD-AMC were generally performed as described in Srinivasula, S. M. et al. J Biol Chem 275:36152-36157, 2000. In this caspase-3 enzymatic assay, caspase-9-depleted S100 extracts from Apaf-1-deficient mouse embryonic fibroblasts were incubated with equal amounts of recombinant WT and triple mutant caspase-9 proteins together with Apaf-1, cytochrome c and dATP. The controls used in these assays represent WT and triple mutant caspase-9 proteins incubated as above without cytochrome c and dATP. The reactions were carried out in the presence of 100 μM of DEVD-AMC for 0-120 minutes, and substrate cleavage was measured by luminescence spectrometry using a Perkin Elmer Luminescence spectrometer and represented in arbitrary spectrometric units.
# [6] = target: T6, X-linked inhibitor of apoptosis protein (XIAP), full length (UniProt P98170 1-497); assay: gel filtration on Superose 6 and immunoblot of fractions
# T6 construct: Used as in vitro translated 35S-labeled full length XIAP (pull-down, Far western) or as purified XIAP (holoenzyme experiments); also called full length XIAP; 35S-labeled XIAP
# Procedure: After incubation, the reaction mixtures were diluted with oligomerization buffer I, and aliquots of each sample (100 μl) were loaded onto a Superose 6 FPLC column.
# Samples were then analyzed by SDS-PAGE and autoradiography.
# XIAP-BIR3 = target: T7, XIAP-BIR3 (Homo sapiens, UniProt P98170); assay: DEVD-AMC cleaving activity in caspase-9-depleted S100 extracts with or without XIAP-BIR3; format: biochemical; conditions: 10 nM caspase-9 protein; XIAP-BIR3 20 nM; DEVD-AMC 100 μM; 30 minutes
# T7 construct: purified XIAP-BIR3 (20 nM)
# Procedure: To test for enzymatic activity, caspase-9-depleted S100 extracts (20 μg) from Apaf-1-deficient mouse embryonic fibroblasts were incubated with recombinant Apaf-1, cytochrome c, dATP, and equal amounts (10 nM) of WT caspase-9 or the caspase-9 Δlinker mutant protein in the presence (+) or absence (−) of purified XIAP-BIR3 (20 nM). The reactions were carried out in the presence of the peptide substrate DEVD-AMC (100 μM) for 30 minutes, and substrate cleavage was measured by luminescence spectrometry.
# To test for enzymatic activity, caspase-9-depleted S100 extracts (20 μg) from Apaf-1-deficient mouse embryonic fibroblasts were incubated with recombinant Apaf-1, cytochrome c, dATP, and equal amounts (10 nM) of WT caspase-9, caspase-9 AT316, 317SG, or AT316, 317GG mutant proteins in the presence (+) or absence (−) of purified XIAP-BIR3 (20 nM). The reactions were carried out in the presence of the peptide substrate DEVD-AMC (100 μM) for 30 minutes, and substrate cleavage was measured by luminescence spectrometry.
# T3 sequence (P98170 whole entry): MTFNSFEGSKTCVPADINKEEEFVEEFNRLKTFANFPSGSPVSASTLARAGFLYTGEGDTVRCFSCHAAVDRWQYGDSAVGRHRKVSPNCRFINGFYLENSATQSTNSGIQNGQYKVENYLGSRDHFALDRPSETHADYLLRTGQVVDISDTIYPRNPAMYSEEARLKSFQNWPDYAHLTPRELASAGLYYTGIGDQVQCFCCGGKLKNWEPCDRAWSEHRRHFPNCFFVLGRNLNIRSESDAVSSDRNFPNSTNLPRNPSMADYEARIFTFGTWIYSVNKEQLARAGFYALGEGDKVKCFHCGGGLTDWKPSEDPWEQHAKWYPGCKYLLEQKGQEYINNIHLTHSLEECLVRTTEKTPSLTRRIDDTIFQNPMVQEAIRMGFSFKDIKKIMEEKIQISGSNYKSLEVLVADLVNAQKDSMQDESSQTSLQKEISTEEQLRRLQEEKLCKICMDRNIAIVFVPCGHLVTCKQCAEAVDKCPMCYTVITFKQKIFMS
# T6 sequence (P98170 whole entry): as above
# T4 sequence (P98170 whole entry, the tested form may be a part): as the sequence (P98170 whole entry) above
# T5 sequence (P98170 238-358 limits assumed): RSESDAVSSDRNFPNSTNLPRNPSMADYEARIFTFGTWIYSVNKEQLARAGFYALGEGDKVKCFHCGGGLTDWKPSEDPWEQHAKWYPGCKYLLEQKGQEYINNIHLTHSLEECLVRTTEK
# T1 sequence (P98170 238-358 limits assumed): as above
# T7 sequence (P98170 238-358 limits assumed): as above
# T2 sequence (P98170 238-358 limits assumed): as above
molecule,measurement,setting,value
"AVPIAQK [Smac-N7, AVPIAQK]",inhibition of binding of caspase-9-p12 to BIR3,[1],completely inhibited
ATPFQEGLRTFDQLD [linker peptide],inhibition of Smac/DIABLO binding to BIR3,[2],completely inhibited
same,promoting caspase-3 activation in XIAP containing extracts,XIAP [3],as effective in promoting caspase-3 activation as the Smac-N5 or N7 peptides
same,interaction with full length XIAP,full length XIAP,able to interact
same,interaction with isolated BIR3 domain of XIAP,[4],able to interact
"triple mutant procaspase-9 (E306/D315/D330A) (enzyme, Unprocessed protein; also called uncleavable caspase-9; mutant caspase-9) MDEADRRLLRRCRLRLVEELQVDQLWDALLSRELFRPHMIEDIQRAGSGSRRDQARQLIIDLETRGSQALPLFISCLEDTGQDMLASFLRTNRQAAKLSKPTLENLTPVVLRPEIRKPEVLRPETPRPVDIGSGGFGDVGALESLRGNADLAYILSMEPCGHCLIINNVNFCRESGLRTRTGSNIDCEKLRRRFSSLHFMVEVKGDLTAKKMVLALLELAQQDHGALDCCVVVILSHGCQASHLQFPGAVYGTDGCPVSVEKIVNIFNGTSCPSLGGKPKLFFIQACGGEQKDHGFEVASTSPEDASPGSNPEPAATPFQEGLRTFDQLAAISSLPTPSDIFVSYSTFPGFVSWRDPKSGSWYVETLDDIFEQWAHSEDLQSLLLRVANAVSVKGIYKQMPGCFNFLRKKLFFKTS",binding of XIAP by Far Western,"XIAP [5]; proteins on nitrocellulose membrane, denatured and renatured",not able to bind
same,processing procaspase-3 C163A or inducing DEVD-AMC cleavage,procaspase-3 C163A,as efficient as the fully processed WT caspase-9
same,binding result,[6],no binding
"Δlinker: caspase-9 with residues 316 to 330 of SEQ ID NO:1 deleted (protein, listed as Homo sapiens) MDEADRRLLRRCRLRLVEELQVDQLWDALLSRELFRPHMIEDIQRAGSGSRRDQARQLIIDLETRGSQALPLFISCLEDTGQDMLASFLRTNRQAAKLSKPTLENLTPVVLRPEIRKPEVLRPETPRPVDIGSGGFGDVGALESLRGNADLAYILSMEPCGHCLIINNVNFCRESGLRTRTGSNIDCEKLRRRFSSLHFMVEVKGDLTAKKMVLALLELAQQDHGALDCCVVVILSHGCQASHLQFPGAVYGTDGCPVSVEKIVNIFNGTSCPSLGGKPKLFFIQACGGEQKDHGFEVASTSPEDESPGSNPEPDAISSLPTPSDIFVSYSTFPGFVSWRDPKSGSWYVETLDDIFEQWAHSEDLQSLLLRVANAVSVKGIYKQMPGCFNFLRKKLFFKTS","ability to interact with BIR3 (Far western, FIG. 12B)",XIAP [5]; recombinant caspase-9 mutants,lost significantly the ability to interact
same,enzymatic activity (DEVD-AMC cleaving) in presence of XIAP-BIR3,XIAP-BIR3,"did not inhibit enzymatic activity, even in the presence of XIAP-BIR3"
